For 29 compounds, IC50 results are on record in US10100058B2, “Fused heterocyclic compounds as CaM kinase inhibitors” (Gilead Sciences, Inc., priority 2016, dated 2018).

The target in this assay is recombinant CaMKIIδ (Homo sapiens (Human), UniProt Q13557). Kind of assay: CaMKIIδ biochemical assay (HTRF). As to conditions: 10 pM CaMKIIδ, 110 nM calmodulin, 12 μM ATP, 1 hour; read-out: CAMKIID-HTRF-384V2 (IC50 - nM). The protocol:
CaMKIIδ Biochemical Assay
The biochemical activity of recombinant CaMKIIδ was measured by monitoring the phosphorylation of a target peptide using Homogenous Time Resolved Fluorescence (HTRF) technology from CisBio Bioassays.

On to `N[C@H]1CC[C@H]2CCCN(C(=O)c3ccnc(-c4cnn5ccc(-c6ccccc6)nc45)c3)[C@H]21` [Example 94, ((4aR,7S,7aR)-7-aminooctahydro-1H-cyclopenta[b]pyridin-1-yl)(2-(5-phenylpyrazolo[1,5-a]pyrimidin-3-yl)pyridin-4-yl)methanone], for which the IC50 came out at 7 nM.
The figure for `COC1CN(c2cc(C(=O)NCC3(N)CCC3)cc(-c3cnn4ccc(-c5ccccc5)nc34)n2)C1` [Example 159, N-((1-aminocyclobutyl)methyl)-2-(3-methoxyazetidin-1-yl)-6-(5-phenylpyrazolo[1,5-a]pyrimidin-3-yl)isonicotinamide] is 84.6 nM; for `CCN(CC)[C@@H](C)CNC(=O)c1cc(-c2cnn3ccc(-c4cccs4)nc23)nc(N2CCC(F)(F)C2)c1` [Example 232, (S)—N-(2-(diethylamino)propyl)-2-(3,3-difluoropyrrolidin-1-yl)-6-(5-(thiophen-2-yl)pyrazolo[1,5-a]pyrimidin-3-yl)isonicotinamide] it is 0.28 nM; for `CC(C)C[C@@]1(CNC(=O)c2ccnc(-c3cnn4ccc(-c5cccs5)nc34)c2)CCCN1` [Example 17, (R)—N-((2-isobutylpyrrolidin-2-yl)methyl)-2-(5-(thiophen-2-yl)pyrazolo[1,5-a]pyrimidin-3-yl)isonicotinamide] it is 7.47 nM.
As for `CCN(CC)[C@@H](C)CNC(=O)c1cc(NCCCOC)nc(-c2cnn3ccc(-c4cccs4)nc23)c1` [Example 218, (S)—N-(2-(diethylamino)propyl)-2-((3-methoxypropyl)amino)-6-(5-(thiophen-2-yl)pyrazolo[1,5-a]pyrimidin-3-yl)isonicotinamide], the IC50 was 0.17 nM.
With `CCN[C@@H](C)CNC(=O)c1ccnc(-c2cnn3ccc(-c4ccccc4)nc23)c1` [Example 42, (S)—N-(2-(ethylamino)propyl)-2-(5-phenylpyrazolo[1,5-a]pyrimidin-3-yl)isonicotinamide], the IC50 worked out at 14.4 nM.
For `CCN(CC)[C@@H](C)CNC(=O)c1cc(-c2cnn3ccc(-c4cccs4)nc23)nc(N2CC[C@H]2C(=O)Nc2nccs2)c1` [Example 291, N—((S)-2-(diethylamino)propyl)-2-((S)-2-(thiazol-2-ylcarbamoyl)azetidin-1-yl)-6-(5-(thiophen-2-yl)pyrazolo[1,5-a]pyrimidin-3-yl)isonicotinamide], the IC50 is 3.55 nM.
To `CCN[C@@H](CC)CNC(=O)c1ccnc(-c2cnn3ccc(-c4cccs4)nc23)c1` [Example 30, (S)—N-(2-(ethylamino)butyl)-2-(5-(thiophen-2-yl)pyrazolo[1,5-a]pyrimidin-3-yl)isonicotinamide] belongs 3.67 nM.
With `CCN(CC)CCNC(=O)c1cc(-c2cnn3ccc(-c4cccs4)nc23)nc(N2CC(C)(O)C2)c1` [Example 258, N-(2-(diethylamino)ethyl)-2-(3-hydroxy-3-methylazetidin-1-yl)-6-(5-(thiophen-2-yl)pyrazolo[1,5-a]pyrimidin-3-yl)isonicotinamide], the IC50 was 1.07 nM.
`CCN(CC)[C@@H](C)CNC(=O)c1cc(-c2cnn3ccc(-c4cccs4)nc23)nc(N2CC[C@H]2C(=O)N2CCOCC2)c1` [Example 293, N—((S)-2-(diethylamino)propyl)-2-((S)-2-(morpholine-4-carbonyl)azetidin-1-yl)-6-(5-(thiophen-2-yl)pyrazolo[1,5-a]pyrimidin-3-yl)isonicotinamide]: the 50% inhibitory concentration (IC50) was 0.16 nM.
For the compound `CCN(CC)[C@@H](C)CNC(=O)c1cc(N)nc(-c2cnn3ccc(-c4ccccc4)nc23)c1` [Example 114, (S)-2-amino-N-(2-(diethylamino)propyl)-6-(5-phenylpyrazolo[1,5-a]pyrimidin-3-yl)isonicotinamide], the IC50 is 0.5 nM.
Consider `CCN(CC)[C@@H](C)CNC(=O)c1cc(NS(=O)(=O)CC)nc(-c2cnn3ccc(-c4cccs4)nc23)c1` [Example 179, (S)—N-(2-(diethylamino)propyl)-2-(ethylsulfonamido)-6-(5-(thiophen-2-yl)pyrazolo[1,5-a]pyrimidin-3-yl)isonicotinamide], for which the IC50 worked out at 0.72 nM.
Take `CCN(CC)[C@@H](C)CNC(=O)c1cc(NC2COC2)nc(-c2cnn3ccc(-c4cccs4)nc23)c1` [Example 193, (S)—N-(2-(diethylamino)propyl)-2-(oxetan-3-ylamino)-6-(5-(thiophen-2-yl)pyrazolo[1,5-a]pyrimidin-3-yl)isonicotinamide]: the IC50 amounted to 83.2 nM.
With `CCN(CC)[C@@H](C)CNC(=O)c1cc(N)nc(-c2cnn3ccc(-c4cccs4)nc23)c1` [Example 102, (S)-2-amino-N-(2-(diethylamino)propyl)-6-(5-(thiophen-2-yl)pyrazolo[1,5-a]pyrimidin-3-yl)isonicotinamide], the IC50 came out at 0.04 nM.
For `CCN(CC)[C@@H](C)CNC(=O)c1cc(-c2cnn3ccc(-c4cccs4)nc23)nc(N2CC(C(C)(C)O)C2)c1` [Example 215, (S)—N-(2-(diethylamino)propyl)-2-(3-(2-hydroxypropan-2-yl)azetidin-1-yl)-6-(5-(thiophen-2-yl)pyrazolo[1,5-a]pyrimidin-3-yl)isonicotinamide], the concentration for half-maximal inhibition (IC50) turned out to be 0.22 nM.
Turning to `CCN[C@@H](C)CNC(=O)c1cc(-c2cnn3ccc(-c4ccccc4)nc23)nc(C2CC2)c1` [Example 123, (S)-2-cyclopropyl-N-(2-(ethylamino)propyl)-6-(5-phenylpyrazolo[1,5-a]pyrimidin-3-yl)isonicotinamide], the IC50 amounted to 94.7 nM.
The figure for `CCN(CC)[C@@H](C)CNC(=O)c1cc(-c2cnn3ccc(-c4cccs4)nc23)ccn1` [Example 363, (S)—N-(2-(diethylamino)propyl)-4-(5-(thiophen-2-yl)pyrazolo[1,5-a]pyrimidin-3-yl)picolinamide] is 1.3 nM; for `CCN(CC)[C@@H](C)CNC(=O)c1cc(-c2cnn3ccc(-c4ccsc4)nc23)nc(N2CC(OC)C2)c1` [Example 165, (S)—N-(2-(diethylamino)propyl)-2-(3-methoxyazetidin-1-yl)-6-(5-(thiophen-3-yl)pyrazolo[1,5-a]pyrimidin-3-yl)isonicotinamide] it is 0.13 nM.
Regarding `CCN(CC)[C@@H](C)CNC(=O)c1cc(-c2cnn3ccc(-c4cccs4)nc23)nc(N2CC[C@H]2C(=O)N2CCCC2)c1` [Example 288, N—((S)-2-(diethylamino)propyl)-2-((S)-2-(pyrrolidine-1-carbonyl)azetidin-1-yl)-6-(5-(thiophen-2-yl)pyrazolo[1,5-a]pyrimidin-3-yl)isonicotinamide], the IC50 stood at 0.29 nM.
To `CCN(CC)[C@@H](CO)CNC(=O)c1cc(-c2cnn3ccc(-c4cccs4)nc23)nc(N2CC[C@H]2C(=O)NC)c1` [Example 359, N—((R)-2-(diethylamino)-3-hydroxypropyl)-2-((S)-2-(methylcarbamoyl)azetidin-1-yl)-6-(5-(thiophen-2-yl)pyrazolo[1,5-a]pyrimidin-3-yl)isonicotinamide] belongs 0.35 nM; to `CCN[C@H](C)CNC(=O)c1ccnc(-c2cnn3ccc(-c4cccs4)nc23)c1` [Example 33, (R)—N-(2-(ethylamino)propyl)-2-(5-(thiophen-2-yl)pyrazolo[1,5-a]pyrimidin-3-yl)isonicotinamide], 8.44 nM.
Consider `CC[C@@]1(CNC(=O)c2ccnc(-c3cnn4ccc(-c5cccs5)nc34)c2)CCCN1` [Example 11, (S)—N-((2-ethylpyrrolidin-2-yl)methyl)-2-(5-(thiophen-2-yl)pyrazolo[1,5-a]pyrimidin-3-yl)isonicotinamide], for which the IC50 worked out at 10.7 nM.
Regarding `CCN(CC)[C@@H](C)CNC(=O)c1cc(-c2cnn3ccc(-c4cccs4)nc23)nc(N2CC[C@H]2C(=O)N2CC(O)C2)c1` [Example 304, N—((S)-2-(diethylamino)propyl)-2-((S)-2-(3-hydroxyazetidine-1-carbonyl)azetidin-1-yl)-6-(5-(thiophen-2-yl)pyrazolo[1,5-a]pyrimidin-3-yl)isonicotinamide], the IC50 amounted to 0.17 nM.
To `CCN(CC)[C@@H](C)CNC(=O)c1cc(-c2cnn3ccc(-c4cccs4)nc23)nc(N2CC(O)(CC)C2)c1` [Example 214, (S)—N-(2-(diethylamino)propyl)-2-(3-ethyl-3-hydroxyazetidin-1-yl)-6-(5-(thiophen-2-yl)pyrazolo[1,5-a]pyrimidin-3-yl)isonicotinamide] belongs 0.18 nM; to `CC[C@@]1(CNC(=O)c2ccnc(-c3cnn4ccc(-c5ccccc5)nc34)c2)CCCN1` [Example 75, (S)—N-((2-ethylpyrrolidin-2-yl)methyl)-2-(5-phenylpyrazolo[1,5-a]pyrimidin-3-yl)isonicotinamide], 39.3 nM; to `CCN(CC)[C@@H](C)CNC(=O)c1cc(-c2cnn3ccc(-c4cccs4)nc23)nc(N2CCC[C@H]2COC)c1` [Example 274, N—((S)-2-(diethylamino)propyl)-2-((S)-2-(methoxymethyl)pyrrolidin-1-yl)-6-(5-(thiophen-2-yl)pyrazolo[1,5-a]pyrimidin-3-yl)isonicotinamide], 0.63 nM.
As to `CCN(CC)[C@@H](C)CNC(=O)c1cc(Nc2cn[nH]c2)nc(-c2cnn3ccc(-c4cccs4)nc23)c1` [Example 231, (S)-2-((1H-pyrazol-4-yl)amino)-N-(2-(diethylamino)propyl)-6-(5-(thiophen-2-yl)pyrazolo[1,5-a]pyrimidin-3-yl)isonicotinamide], the IC50 was determined as 0.06 nM.
To `CCN(CC)[C@@H](C)CNC(=O)c1cc(-c2cnn3ccc(-c4cccs4)nc23)nc(N2CCC(O)C(F)(F)C2)c1` (stereo partly drawn) [Example 156, N—((S)-2-(diethylamino)propyl)-2-(3,3-difluoro-4-hydroxypiperidin-1-yl)-6-(5-(thiophen-2-yl)pyrazolo[1,5-a]pyrimidin-3-yl)isonicotinamide] belongs 0.85 nM.
Turning to `CCN(CC)[C@@H](C)CNC(=O)c1cc(-c2cnn3ccc(-c4cccs4)nc23)nc(N2CCC[C@@H]2C(=O)NC)c1` [Example 320, N—((S)-2-(diethylamino)propyl)-2-((R)-2-(methylcarbamoyl)pyrrolidin-1-yl)-6-(5-(thiophen-2-yl)pyrazolo[1,5-a]pyrimidin-3-yl)isonicotinamide], the IC50 came out at 32.8 nM.
